Test results reported in ChEMBL document CHEMBL3885881, “DrugMatrix”.

Species: Rattus norvegicus
Assay: DrugMatrix - Regimen: Daily Repeat
Format: toxicity, organism-based, Sprague-Dawley
Parameters: regimen Daily Repeat, gender Male, age 6-8 weeks
Settings: in vivo, sc, route subcutaneous, […]; for ABSOLUTE BASOPHIL / ABSOLUTE EOSINOPHIL / ABSOLUTE LYMPHOCYTE / ABSOLUTE MONOCYTE / ABSOLUTE SEGMENTED NEUTROPHIL / BASOPHIL / EOSINOPHIL / ERYTHROCYTE COUNT / HEMATOCRIT / HEMOGLOBIN / LEUKOCYTE COUNT / LYMPHOCYTE / MEAN CORPUSCULAR HEMOGLOBIN / MEAN CORPUSCULAR HEMOGLOBIN CONCENTRATION / MEAN CORPUSCULAR VOLUME / MONOCYTE / NEUTROPHIL / NUCLEATED RED BLOOD CELLS / PLATELET COUNT: tissue Blood; for ALANINE AMINOTRANSFERASE / ALBUMIN / ALKALINE PHOSPHATASE / ASPARTATE AMINOTRANSFERASE / BLOOD UREA NITROGEN / CARBON DIOXIDE / CHLORIDE / CHOLESTEROL / CREATINE PHOSPHOKINASE / CREATININE / GLUCOSE / LACTATE DEHYDROGENASE / LIPASE / PHOSPHORUS / POTASSIUM / SODIUM / TOTAL BILIRUBIN / TOTAL PROTEIN / URIC ACID: tissue Plasma
[1] = 50 mg/kg, 120 h, dose level Low, time 5 day
[2] = 201 mg/kg, 72 h, dose level High, time 3 day
[3] = 201 mg/kg, 120 h, dose level High, time 5 day

## CCCCOC(=O)c1ccc(N)cc1 [BUTAMBEN]
[1]
  ABSOLUTE BASOPHIL: 0 CELLS/uL
  ABSOLUTE EOSINOPHIL: 200.67 CELLS/uL
  ABSOLUTE LYMPHOCYTE: 13363.67 CELLS/uL
  ABSOLUTE MONOCYTE: 123.33 CELLS/uL
  ABSOLUTE SEGMENTED NEUTROPHIL: 2512.33 CELLS/uL
  BASOPHIL: 0%
  EOSINOPHIL: 1.33%
  ERYTHROCYTE COUNT: 5.82 x10E6/uL
  HEMATOCRIT: 36.47%
  HEMOGLOBIN: 13.23 G/DL
  LEUKOCYTE COUNT: 16.2 x10E3/uL
  LYMPHOCYTE: 82.33%
  MEAN CORPUSCULAR HEMOGLOBIN: 22.8 pg
  MEAN CORPUSCULAR HEMOGLOBIN CONCENTRATION: 36.3 G/DL
  MEAN CORPUSCULAR VOLUME: 62.77 fL
  MONOCYTE: 0.67%
  NEUTROPHIL: 15.67%
  NUCLEATED RED BLOOD CELLS: 0 /100WBC
  PLATELET COUNT: 1424.33 x10E3/uL
  ALANINE AMINOTRANSFERASE: 47.67 u/L
  ALBUMIN: 4.3 G/DL
  ALKALINE PHOSPHATASE: 349 u/L
  ASPARTATE AMINOTRANSFERASE: 78.67 u/L
  BLOOD UREA NITROGEN: 19.67 mg/dL
  CARBON DIOXIDE: 23.67 mmol/L
  CHLORIDE: 105.67 MEQ/L
  CHOLESTEROL: 76.67 mg/dL
  CREATINE PHOSPHOKINASE: 340 u/L
  CREATININE: 0.21 mg/dL
  GLUCOSE: 179.67 mg/dL
  LACTATE DEHYDROGENASE: 100.67 u/L
  LIPASE: 8.33 u/L
  PHOSPHORUS: 12.87 mg/dL
  POTASSIUM: 6.56 MEQ/L
  SODIUM: 145.27 MEQ/L
  TOTAL BILIRUBIN: 0.23 mg/dL
  TOTAL PROTEIN: 6.03 G/DL
  URIC ACID: 1.9 mg/dL
[2]
  ABSOLUTE BASOPHIL: 0 CELLS/uL
  ABSOLUTE EOSINOPHIL: 70 CELLS/uL
  ABSOLUTE LYMPHOCYTE: 16456 CELLS/uL
  ABSOLUTE MONOCYTE: 124.67 CELLS/uL
  ABSOLUTE SEGMENTED NEUTROPHIL: 2816 CELLS/uL
  BASOPHIL: 0%
  EOSINOPHIL: 0.33%
  ERYTHROCYTE COUNT: 5.58 x10E6/uL
  HEMATOCRIT: 36%
  HEMOGLOBIN: 13.23 G/DL
  LEUKOCYTE COUNT: 19.47 x10E3/uL
  LYMPHOCYTE: 84.67%
  MEAN CORPUSCULAR HEMOGLOBIN: 23.77 pg
  MEAN CORPUSCULAR HEMOGLOBIN CONCENTRATION: 36.8 G/DL
  MEAN CORPUSCULAR VOLUME: 64.57 fL
  MONOCYTE: 0.67%
  NEUTROPHIL: 14.33%
  NUCLEATED RED BLOOD CELLS: 0.67 /100WBC
  PLATELET COUNT: 1165.33 x10E3/uL
  ALANINE AMINOTRANSFERASE: 57 u/L
  ALBUMIN: 4.07 G/DL
  ALKALINE PHOSPHATASE: 412 u/L
  ASPARTATE AMINOTRANSFERASE: 89.67 u/L
  BLOOD UREA NITROGEN: 16.33 mg/dL
  CARBON DIOXIDE: 27.67 mmol/L
  CHLORIDE: 103 MEQ/L
  CHOLESTEROL: 70.67 mg/dL
  CREATINE PHOSPHOKINASE: 345 u/L
  CREATININE: 0.18 mg/dL
  GLUCOSE: 160.33 mg/dL
  LACTATE DEHYDROGENASE: 218 u/L
  LIPASE: 8.33 u/L
  PHOSPHORUS: 12.83 mg/dL
  POTASSIUM: 6.76 MEQ/L
  SODIUM: 143.8 MEQ/L
  TOTAL BILIRUBIN: 0.23 mg/dL
  TOTAL PROTEIN: 5.8 G/DL
  URIC ACID: 1.53 mg/dL
[3]
  ABSOLUTE BASOPHIL: 0 CELLS/uL
  ABSOLUTE EOSINOPHIL: 338.33 CELLS/uL
  ABSOLUTE LYMPHOCYTE: 17074 CELLS/uL
  ABSOLUTE MONOCYTE: 209.67 CELLS/uL
  ABSOLUTE SEGMENTED NEUTROPHIL: 3344.67 CELLS/uL
  BASOPHIL: 0%
  EOSINOPHIL: 1.67%
  ERYTHROCYTE COUNT: 5.22 x10E6/uL
  HEMATOCRIT: 33.53%
  HEMOGLOBIN: 12.47 G/DL
  LEUKOCYTE COUNT: 20.97 x10E3/uL
  LYMPHOCYTE: 81.33%
  MEAN CORPUSCULAR HEMOGLOBIN: 23.9 pg
  MEAN CORPUSCULAR HEMOGLOBIN CONCENTRATION: 37.17 G/DL
  MEAN CORPUSCULAR VOLUME: 64.37 fL
  MONOCYTE: 1%
  NEUTROPHIL: 16%
  NUCLEATED RED BLOOD CELLS: 0 /100WBC
  PLATELET COUNT: 1321.67 x10E3/uL
  ALANINE AMINOTRANSFERASE: 47 u/L
  ALBUMIN: 4.17 G/DL
  ALKALINE PHOSPHATASE: 353 u/L
  ASPARTATE AMINOTRANSFERASE: 79.67 u/L
  BLOOD UREA NITROGEN: 18 mg/dL
  CARBON DIOXIDE: 26.67 mmol/L
  CHLORIDE: 104.33 MEQ/L
  CHOLESTEROL: 51 mg/dL
  CREATINE PHOSPHOKINASE: 415 u/L
  CREATININE: 0.21 mg/dL
  GLUCOSE: 163 mg/dL
  LACTATE DEHYDROGENASE: 103 u/L
  LIPASE: 8 u/L
  PHOSPHORUS: 12.37 mg/dL
  POTASSIUM: 6.72 MEQ/L
  SODIUM: 144.47 MEQ/L
  TOTAL BILIRUBIN: 0.37 mg/dL
  TOTAL PROTEIN: 6.07 G/DL
  URIC ACID: 1.93 mg/dL
